Measurements: ChEMBL document CHEMBL5126592, “Design, synthesis and activity against drug-resistant bacteria evaluation of C-20, C-23 modified 5-O-mycaminosyltylonolide derivatives” (Eur J Med Chem, 2022)
In brackets after ≈: the same amount, converted by molar mass.

Key:
Type in all cases: functional
Conditions in all cases: time 16-20 hrs
Escherichia coli = experiment: Antibacterial activity against Escherichia coli ATCC 25922 incubated for 16 to 20 hrs by broth microdilution method
Cronobacter sakazakii = experiment: Antibacterial activity against Cronobacter sakazakii ATCC 29544 incubated for 16 to 20 hrs by broth microdilution method
Klebsiella pneumoniae = experiment: Antibacterial activity against Klebsiella pneumoniae ATCC 13883 incubated for 16 to 20 hrs by broth microdilution method
Staphylococcus aureus = experiment: Antibacterial activity against Staphylococcus aureus ATCC 25923 incubated for 16 to 20 hrs by broth microdilution method

| SMILES | MIC (Escherichia coli) [µg/mL] | MIC (Cronobacter sakazakii) [µg/mL] | MIC (Klebsiella pneumoniae) [µg/mL] | MIC (Staphylococcus aureus) [µg/mL] |
| --- | --- | --- | --- | --- |
| CC[C@H]1OC(=O)C[C@@H](O)[C@H](C)[C@@H](O[C@@H]2O[C@H](C)[C@@H](O)[C@H](N(C)C)[C@H]2O)[C@@H](CCN(Cc2ccc(N(C)C)cc2)Cc2cn(-c3cnc4ccccc4c3)nn2)C[C@@H](C)C(=O)/C=C/C(C)=C/[C@@H]1CI | 32 (≈ 30.5 µM) | 32 (≈ 30.5 µM) | 16 (≈ 15.2 µM) | 4 (≈ 3.81 µM) |
| CC[C@H]1OC(=O)C[C@@H](O)[C@H](C)[C@@H](O[C@@H]2O[C@H](C)[C@@H](O)[C@H](N(C)C)[C@H]2O)[C@@H](CCN(Cc2ccc(C(F)(F)F)cc2)Cc2cn(-c3cnc4ccccc4c3)nn2)C[C@@H](C)C(=O)/C=C/C(C)=C/[C@@H]1CN1CCCCCC1 | 4 (≈ 3.82 µM) | 8 (≈ 7.65 µM) | 4 (≈ 3.82 µM) | 1 (≈ 0.956 µM) |
| CC[C@H]1OC(=O)C[C@@H](O)[C@H](C)[C@@H](O[C@@H]2O[C@H](C)[C@@H](O)[C@H](N(C)C)[C@H]2O)[C@@H](CCN(Cc2ccc(C(F)(F)F)cc2)Cc2cn(-c3cnc4ccccc4c3)nn2)C[C@@H](C)C(=O)/C=C/C(C)=C/[C@@H]1CN1CCCCCCC1 | 4 (≈ 3.77 µM) | 32 (≈ 30.2 µM) | 8 (≈ 7.54 µM) | 1 (≈ 0.943 µM) |
| CC[C@H]1OC(=O)C[C@@H](O)[C@H](C)[C@@H](O[C@@H]2O[C@H](C)[C@@H](O)[C@H](N(C)C)[C@H]2O)[C@@H](CCN(Cc2ccc(C(F)(F)F)cc2)Cc2cn(-c3cnc4ccccc4c3)nn2)C[C@@H](C)C(=O)/C=C/C(C)=C/[C@@H]1CN1CC(C)CC(C)C1 (some centres not stated) | 32 (≈ 30.2 µM) | 16 (≈ 15.1 µM) | 16 (≈ 15.1 µM) | 4 (≈ 3.77 µM) |
| CC[C@H]1OC(=O)C[C@@H](O)[C@H](C)[C@@H](O[C@@H]2O[C@H](C)[C@@H](O)[C@H](N(C)C)[C@H]2O)[C@@H](CCN(Cc2cn(-c3cnc4ccccc4c3)nn2)Cc2ccco2)C[C@@H](C)C(=O)/C=C/C(C)=C/[C@@H]1CI | 32 (≈ 32.1 µM) | 16 (≈ 16 µM) | 16 (≈ 16 µM) | 2 (≈ 2.01 µM) |
| CC[C@H]1OC(=O)C[C@@H](O)[C@H](C)[C@@H](O[C@@H]2O[C@H](C)[C@@H](O)[C@H](N(C)C)[C@H]2O)[C@@H](CCN(Cc2ccc(N(C)C)cc2)Cc2cn(-c3cnc4ccccc4c3)nn2)C[C@@H](C)C(=O)/C=C/C(C)=C/[C@@H]1CN1CCCCCC1 | 4 (≈ 3.92 µM) | 8 (≈ 7.83 µM) | 4 (≈ 3.92 µM) | 1 (≈ 0.979 µM) |
| CCCCN(CCCC)C[C@H]1/C=C(C)/C=C/C(=O)[C@H](C)C[C@H](CCN(Cc2ccc(Br)cc2)Cc2cn(-c3cnc4ccccc4c3)nn2)[C@H](O[C@@H]2O[C@H](C)[C@@H](O)[C@H](N(C)C)[C@H]2O)[C@@H](C)[C@H](O)CC(=O)O[C@@H]1CC | 8 (≈ 7.36 µM) | 16 (≈ 14.7 µM) | 16 (≈ 14.7 µM) | 1 (≈ 0.92 µM) |

Second part, the molecule after the results:

| MIC (Escherichia coli) [µg/mL] | MIC (Cronobacter sakazakii) [µg/mL] | MIC (Klebsiella pneumoniae) [µg/mL] | MIC (Staphylococcus aureus) [µg/mL] | SMILES |
| --- | --- | --- | --- | --- |
| 4 (≈ 3.92 µM) | 16 (≈ 15.7 µM) | 8 (≈ 7.84 µM) | 1 (≈ 0.98 µM) | CC[C@H]1OC(=O)C[C@@H](O)[C@H](C)[C@@H](O[C@@H]2O[C@H](C)[C@@H](O)[C@H](N(C)C)[C@H]2O)[C@@H](CCN(Cc2ccc(C(F)(F)F)cc2)Cc2cn(-c3cnc4ccccc4c3)nn2)C[C@@H](C)C(=O)/C=C/C(C)=C/[C@@H]1CN(CC)CC |
| 8 (≈ 8.3 µM) | 8 (≈ 8.3 µM) | 8 (≈ 8.3 µM) | 1 (≈ 1.04 µM) | CC[C@H]1OC(=O)C[C@@H](O)[C@H](C)[C@@H](O[C@@H]2O[C@H](C)[C@@H](O)[C@H](N(C)C)[C@H]2O)[C@@H](CCN(Cc2ccccc2)Cc2cn(-c3cnc4ccccc4c3)nn2)C[C@@H](C)C(=O)/C=C/C(C)=C/[C@@H]1CN1CCCCC1 |
| 8 (≈ 8.06 µM) | 16 (≈ 16.1 µM) | 8 (≈ 8.06 µM) | 1 (≈ 1.01 µM) | CC[C@H]1OC(=O)C[C@@H](O)[C@H](C)[C@@H](O[C@@H]2O[C@H](C)[C@@H](O)[C@H](N(C)C)[C@H]2O)[C@@H](CCN(Cc2ccccc2)Cc2cn(-c3cnc4ccccc4c3)nn2)C[C@@H](C)C(=O)/C=C/C(C)=C/[C@@H]1CN1CCCCCCC1 |
| 32 (≈ 31.8 µM) | 32 (≈ 31.8 µM) | 32 (≈ 31.8 µM) | 2 (≈ 1.99 µM) | CC[C@H]1OC(=O)C[C@@H](O)[C@H](C)[C@@H](O[C@@H]2O[C@H](C)[C@@H](O)[C@H](N(C)C)[C@H]2O)[C@@H](CCN(Cc2ccccc2)Cc2cn(-c3cnc4ccccc4c3)nn2)C[C@@H](C)C(=O)/C=C/C(C)=C/[C@@H]1CI |
| 8 (≈ 8.73 µM) | 16 (≈ 17.5 µM) | 8 (≈ 8.73 µM) | 2 (≈ 2.18 µM) | CC[C@H]1OC(=O)C[C@@H](O)[C@H](C)[C@@H](O[C@@H]2O[C@H](C)[C@@H](O)[C@H](N(C)C)[C@H]2O)[C@@H](CCN(C)Cc2cn(-c3cnc4ccccc4c3)nn2)C[C@@H](C)C(=O)/C=C/C(C)=C/[C@@H]1CN1CC(C)CC(C)C1 (some centres not stated) |
| 8 (≈ 8.63 µM) | 32 (≈ 34.5 µM) | 16 (≈ 17.3 µM) | 0.25 (≈ 0.27 µM) | CC[C@H]1OC(=O)C[C@@H](O)[C@H](C)[C@@H](O[C@@H]2O[C@H](C)[C@@H](O)[C@H](N(C)C)[C@H]2O)[C@@H](CCN(Cc2ccc(OC)cc2)Cc2cn(-c3cnc4ccccc4c3)nn2)C[C@@H](C)C(=O)/C=C/C(C)=C/[C@@H]1CO |
